In patent publication US6737418B2, “Aryl substituted pyrazoles, imidazoles, oxazoles, thiazoles and pyrroles, and the use thereof” (Euro-Celtique S.A., priority 1999, dated 2004):

Legend:
[1] = tested on: maximal electroshock-induced seizures (MES); experiment: Maximum electroshock seizure test (MES), oral administration to mice; format: in vivo; settings: Mus musculus, po, 30 minutes before the test, dose protecting 50% of animals
Description: The compounds of the present invention may be tested for in vivo anticonvulsant activity after i.v., p.o. or i.p. injection using a number of anticonvulsant tests in mice, including the maximum electroshock seizure test (MES). Maximum electroshock seizures were induced in male NSA mice weighing between 15-20 g and male Sprague-Dawley rats weighing between 200-225 g by application of current (50 mA, 60 pulses/sec, 0.8 msec pulse width, 1 sec duration, D.C., mice; 99 mA, 125 pulses/sec, 0.8 msec pulse width, 2 sec duration, D.C., rats) using a Ugo Basile ECT device (Model 7801). Mice were restrained by gripping the loose skin on their dorsal surface and saline-coated corneal electrodes were held lightly against the two corneae. Rats were allowed free movement on the bench top and ear-clip electrodes were used. […] A tonic seizure was defined as a hindlimb extension in excess of 90 degrees from the plane of the body. Results were treated in a quantal manner.
The ability of 3-[4-(2,4-difluorophenoxy)phenyl]-1H-pyrazole-1-carboxamide to block maximal electroshock-induced seizures (MES) was determined as described earlier.
3-[4-(2,4-Difluorophenoxy)phenyl]-1H-pyrazole-1-carboxamide was administered p.o. to mice 30 minutes before the test procedure.
The following compounds in Table 1 were tested in MES as described for 3-[4-(2,4-difluorophenoxy)phenyl]-1H-pyrazole-1-carboxamide: […]

[2] = target: rBIIA isoform of Na+ channels (Rattus norvegicus, UniProt P04775); experiment: Electrophysiological Assay 2: whole-cell patch-clamp of Na+ currents in HEK-293 cells expressing rBIIA; format: cell-based; settings: HEK-293 cells stably expressing rBIIA; concentration that produces half maximal inhibition
Procedure: Cell preparation: HEK-293 (NaIIA-B2) cell line stably expressing the rBIIA isoform of Na^+ channels was established in-house. The cells were cultured using standard techniques, as described previously (Verdoorn, T. A, et al., Neuron 4:919-928 (1990)). For electrophysiology, cells were plated onto poly-D-lysine pre-coated Cellware 35 mm Petri dishes (BIOCOAT, Becton Dickinson) at a density of ˜10^4 cells/dish on the day of re-seeding from confluent cultures. Our experience has been that cells are suitable for recordings for 2-3 days after plating.
Patch-clamp recordings of voltage-sensitive Na^+ currents. Whole-cell voltage-clamp recordings were made using conventional patch-clamp techniques (Hamill et al., Pfluegers Arch. 391:85-100 (1981)) with an Axopatch 200A amplifier (Axon Instruments, Foster City, Calif.). The recording chamber was continuously superfused with the external solution (150 mM NaCl, 5.4 mM KCl, 1.8 mM CaCl2, 1 mM MgCl2, 10 mM HEPES, 10 mM glucose, pH7.4 adjusted with NaOH, osmolality ˜320 mmol/kg) at a speed of about 1 mL/min. Recording pipettes were pulled from the thick-walled capillaries (WPI, Sarasota, Fla.) and fire-polished. The pipette resistances ranged from 1 to 3 MΩ when the pipettes were filled with internal solution containing (in mM): 130 CsF, 20 NaCl, 2 MgCl2, 10 EGTA, 10 HEPES, pH adjusted to 7.4 with CsOH, osmolality ˜310 mmol/kg. Drugs and intervening wash-outs were applied through a linear array of flow pipes (Drummond Microcaps, 2 μL, 64-mm length). Compounds are dissolved in dimethylsulfoxide (DMSO) to make a 30 mM stock solution, which was subsequently diluted into the external solution to give final concentrations of 0.1-100 μM. At the highest (1%) concentration, DMSO inhibited the size of Na^+ current only slightly. Currents were recorded at room temperature (22-25° C.), filtered at 3 kHz with an active 8-pole Bessel filter (Frequency Devices, Haverhill, Mass.), digitized at 10-50 μs intervals, and stored using Digidata 1200 analog/digital interface with Pclamp6/Clampex software (Axon Instruments). Series resistance was cancelled typically by ˜75% when necessary.
The following voltage pulse protocols were used to assess the potency and kinetics of inhibition of the Na^+ channels by the compounds (FIG. 1). [drawing 33]
FIG. 1. Voltage pulse protocols. A. IV-curves. C. Steady-state inactivation. B. Repriming kinetics. D. Time course of binding.
Current-voltage relationship (IV-curve), protocol A, was used to report the voltage at which the maximal inward Na^+ current is achieved. This voltage was used throughout the experiment as testing voltage, Vt. The steady-state inactivation (or, availability) curve, protocol C, was used to get the voltage at which almost complete (≧95%) inactivation of Na^+ channels occurs; it served as voltage for conditioning prepulse, Vc, throughout the experiment. Protocol B reports how fast the channels recover from inactivation at hyperpolarized voltages. This permitted us to set up the duration of the hyperpolarization gap which is used in measurement of the kinetics of binding of compounds to inactivated Na^+ channels (protocol D). Channel repriming under control conditions was fast (≧90% recovery during first 5-10 ms). If a drug substantially retards the repriming process then it becomes possible (protocol D) to accurately measure the kinetics of binding of the inhibitor to inactivated channels as well as the steady-state affinity (k+ and Ki). To estimate k+ values the reduction in peak currents in successive trials with varying pre-pulse duration was plotted as a function of pre-pulse duration and the time constant (τ) measured by mono-exponential fit. A plot of 1/τ as a function of antagonist concentration then allowed calculating of the macroscopic binding rates of the antagonists. To determine Ki values the partial inhibition curves measured by fractional responses in steady-state were fitted with the logistic equation: […]

**Q.** Which ED50 [1] does the source give for `Cl.Fc1cc(Cl)ccc1Oc1ccc(-c2c[nH]cn2)cc1` [4-[4-(4-Chloro-2-fluorophenoxy)phenyl]-1H-imidazole, hydrochloride salt] here?
**A.** The ED50 was 10 mg/kg.

**Q.** And the Ki [2]?
**A.** Its Ki is 0.12 µM.

**Q.** What about the melting point of the same compound?
**A.** Its melting point is 216 to 220 °C.
